Results as given in article PMC4795788, “Finding Potent Sirt Inhibitor in Coffee: Isolation, Confirmation and Synthesis of Javamide-II (N-Caffeoyltryptophan) as Sirt1/2 Inhibitor” (PLoS ONE, 2016).

Legend:
Format in all cases: biochemical
Sirt3 = molecular target: T1, Sirt3 (Homo sapiens, UniProt Q9NTG7); test: fluorescent deacetylase assay, % inhibition at […]
T1 construct: human recombinant Sirt3 (Cayman Direct Fluorescent Screening Assay kit)
T1 sequence (Q9NTG7 102-399): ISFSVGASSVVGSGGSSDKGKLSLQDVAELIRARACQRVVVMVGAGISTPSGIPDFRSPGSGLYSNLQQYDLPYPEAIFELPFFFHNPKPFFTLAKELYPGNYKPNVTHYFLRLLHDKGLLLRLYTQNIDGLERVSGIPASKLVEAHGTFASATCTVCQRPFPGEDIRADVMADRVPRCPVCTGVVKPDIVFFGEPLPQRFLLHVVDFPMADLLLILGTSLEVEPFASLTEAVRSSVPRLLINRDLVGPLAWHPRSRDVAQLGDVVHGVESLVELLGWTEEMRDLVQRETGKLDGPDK

Sirt1 = molecular target: T2, Sirt1 (Homo sapiens, UniProt Q96EB6); test: fluorescent deacetylase assay
T2 construct: human recombinant Sirt1 (Cayman Direct Fluorescent Screening Assay kit)
T2 sequence (Q96EB6 2-747): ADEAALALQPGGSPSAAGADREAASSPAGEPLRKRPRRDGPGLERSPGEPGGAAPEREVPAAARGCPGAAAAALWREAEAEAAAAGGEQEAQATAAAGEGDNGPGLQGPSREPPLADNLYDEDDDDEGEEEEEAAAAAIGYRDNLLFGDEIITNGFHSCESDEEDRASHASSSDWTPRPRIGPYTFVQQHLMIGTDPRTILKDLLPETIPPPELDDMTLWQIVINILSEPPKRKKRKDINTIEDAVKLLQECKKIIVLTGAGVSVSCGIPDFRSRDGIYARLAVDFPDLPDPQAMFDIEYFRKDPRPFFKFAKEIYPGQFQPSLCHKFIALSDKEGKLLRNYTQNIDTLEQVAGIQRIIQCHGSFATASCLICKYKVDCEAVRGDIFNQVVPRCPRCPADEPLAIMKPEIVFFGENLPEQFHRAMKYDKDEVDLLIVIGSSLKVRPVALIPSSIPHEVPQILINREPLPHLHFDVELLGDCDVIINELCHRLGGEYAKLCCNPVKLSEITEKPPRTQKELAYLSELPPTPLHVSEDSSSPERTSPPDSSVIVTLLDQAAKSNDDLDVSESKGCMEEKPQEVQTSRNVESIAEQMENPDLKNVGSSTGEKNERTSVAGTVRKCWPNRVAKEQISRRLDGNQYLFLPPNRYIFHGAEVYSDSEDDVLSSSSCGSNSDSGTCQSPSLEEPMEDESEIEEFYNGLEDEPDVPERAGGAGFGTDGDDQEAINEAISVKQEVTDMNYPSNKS

Sirt2 = molecular target: T3, Sirt2 (Homo sapiens, UniProt Q8IXJ6); test: fluorescent deacetylase assay, Lineweaver-Burk kinetics (IC50 […])
T3 sequence (Q8IXJ6 2-389): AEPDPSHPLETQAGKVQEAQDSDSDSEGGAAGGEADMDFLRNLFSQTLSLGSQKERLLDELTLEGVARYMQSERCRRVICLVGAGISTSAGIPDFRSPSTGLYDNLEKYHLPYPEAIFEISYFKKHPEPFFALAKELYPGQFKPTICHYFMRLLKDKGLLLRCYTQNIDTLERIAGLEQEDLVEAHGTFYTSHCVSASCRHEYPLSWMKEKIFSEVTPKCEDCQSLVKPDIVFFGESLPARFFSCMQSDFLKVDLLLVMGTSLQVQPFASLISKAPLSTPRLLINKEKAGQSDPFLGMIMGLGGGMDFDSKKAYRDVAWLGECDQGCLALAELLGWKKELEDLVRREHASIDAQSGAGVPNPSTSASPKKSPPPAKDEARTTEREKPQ

Compound `O=C(/C=C/c1ccc(O)c(O)c1)N[C@@H](Cc1c[nH]c2ccccc12)C(=O)O` [javamide-II, (E)-(3-(3,4-dihydroxyphenyl)acryloyl)tryptophan] has an inhibition at 60 µM (Sirt3) of 50 ± 8.1%, an IC50 (Sirt1) of 34 µM and a Ki (Sirt2) of 5.3 µM.
